Like-named read-outs stand apart in the source and are kept apart here.
Legend:
[1] = tested on: VV, VSV, HSV-1, HSV-2, Coxsackie virus B4 and poliovirus-1; conditions: cited from earlier work
HeLa S3 cells = experiment: Cell proliferation assay, 3H-thymidine uptake; conditions: 2 days + 16 h, single experiment
vaccinia virus = format: cell-based
CV-1 cells = experiment: Cytostatic activity; conditions: CV-1 cells seeded at 3.5 × 10^3 cells/well; 24 h incubation; cells counted
vaccinia virus WR strain [2] = format: cell-based
[3] = tested on: vaccinia virus Western Reserve (WR) strain; format: cell-based
vaccinia virus WR strain [4] = format: cell-based; conditions: 16 h
[5] = tested on: vaccinia virus IHD-J (EEV); format: cell-based
camelpox = conditions: read-out: EC50 (camelpox); cited from earlier work
cowpox = conditions: read-out: EC50 (cowpox); cited from earlier work
monkeypox = conditions: read-out: EC50 (monkeypox); cited from earlier work
vaccinia = conditions: read-out: EC50 (vaccinia); cited from earlier work
[6] = tested on: vaccinia virus International Health Department-J (IHD-J) strain; format: cell-based

Compound	CC50 Cell proliferation (HeLa S3 cells)	% inhibition (vaccinia virus; 25 µg/mL)	titer (vaccinia virus; 25 µg/mL)	% inhibition (vaccinia virus; 50 µg/mL)	titer (vaccinia virus; 50 µg/mL)	CC50 Cytostatic activity (CV-1 cells)	% inhibition (vaccinia virus WR strain [2]; 25 µg/mL)	titer (vaccinia virus WR strain [2]; 25 µg/mL)	% inhibition (vaccinia virus WR strain [2]; 50 µg/mL)	titer (vaccinia virus WR strain [2]; 50 µg/mL)	% inhibition (vaccinia virus WR strain [4]; 25 µg/mL)	titer (vaccinia virus WR strain [4]; 25 µg/mL)	% inhibition (vaccinia virus WR strain [4]; 50 µg/mL)	titer (vaccinia virus WR strain [4]; 50 µg/mL)	EC50 IHD-J (EEV) CV-1 [5]	other results
O=C(O)c1ccc(-c2c3nc(c(-c4ccc(C(=O)O)cc4)c4ccc([nH]4)c(-c4ccc(C(=O)O)cc4)c4nc(c(-c5ccc(C(=O)O)cc5)c5ccc2[nH]5)C=C4)C=C3)cc1 [TPPC, meso-tetra(4-carboxyphenyl)porphyrin]																EC50s for VV, VSV, HSV-1, HSV-2, Coxsackie virus B4 and poliovirus-1 [1]: ≥ 20 µg/mL
C=CC1=C(C)c2cc3[n-]c(cc4nc(cc5[n-]c(cc1n2)c(C)c5C=C)C(C)=C4CCC(=O)O)c(CCC(=O)O)c3C.[Zn+2] [ZnPPIX, zinc protoporphyrin]	25 µg/mL	92 ± 1%	2.1 × 10^4 pfu/mL	99 ± 7%	3.2 × 10^3 pfu/mL	370 µg/mL	98%	2.5 × 10^5 pfu/mL	99%	1.0 × 10^5 pfu/mL	65 ± 0.3%	7.2 × 10^5 pfu/mL	70 ± 4%	6.4 × 10^5 pfu/mL	38 ± 7.8 µg/mL	EC50 WR CV-1 [3]: 15 ± 12 µg/mL
Nc1ccn(C[C@@H](CO)OCP(=O)(O)O)c(=O)n1 [cidofovir]																EC50 (camelpox): 2.3 µM; EC50 (cowpox): 58 µM; EC50 (monkeypox): 27 µM; EC50 (vaccinia): 46.2 µM
Fe meso-tetrakis(3,4-disulfonatomesityl)porphyrin [FeTMPS]																EC50s for VV, VSV, HSV-1, HSV-2, Coxsackie virus B4 and poliovirus-1 [1]: ≥ 20 µg/mL
copper hematoporphyrin [CuHPIX]	36 µg/mL	80 ± 2%	5.0 × 10^4 pfu/mL	91 ± 2%	2.3 × 10^4 pfu/mL		93%	1.1 × 10^6 pfu/mL	97%	4.5 × 10^5 pfu/mL	33 ± 9%	1.3 × 10^6 pfu/mL	71 ± 4%	6.3 × 10^5 pfu/mL	1.1 ± 0.4 µg/mL	EC50 WR BSC-40 [3]: 0.03 ± 0.01 µg/mL; EC50 WR CV-1 [3]: 7.8 ± 0.9 µg/mL; EC50 IHD-J CV-1 [6]: 1.5 ± 0.4 µg/mL; EC50 IHD-J (EEV) BSC-40 [5]: 0.32 ± 0.13 µg/mL
sulfonated 5,10,15,20-tetra-naphthalen-1-yl-porphyrin [TNapPS]		87 ± 5%	3.3 × 10^4 pfu/mL	95 ± 2%	1.3 × 10^4 pfu/mL	400 µg/mL	98%	3.5 × 10^5 pfu/mL	98%	2.6 × 10^5 pfu/mL	73 ± 16%	3.5 × 10^5 pfu/mL	92 ± 1%	1.0 × 10^5 pfu/mL	1.0 ± 0.1 µg/mL	
sulfonated copper phthalocyanine [CuPcS(3444)]	> 500 µg/mL	92 ± 3%	2.1 × 10^4 pfu/mL	90 ± 2%	2.4 × 10^4 pfu/mL	> 1000 µg/mL	60%	6.3 × 10^6 pfu/mL	74%	4.1 × 10^6 pfu/mL	49 ± 21%	9.3 × 10^5 pfu/mL	59 ± 2%	8.3 × 10^5 pfu/mL	8.2 ± 1.3 µg/mL	EC50 IHD-J CV-1 [6]: 14 ± 5.3 µg/mL; EC50 IHD-J (EEV) BSC-40 [5]: 50 ± 7 µg/mL
